Values quoted from earlier work in US20090030079A1 (priority 2007, published 2009).
Read-outs that look alike come from different tables or passages of the source.

What was measured:
[1] = In^3+, cited from earlier work
[2] = cited from earlier work
[3] = Tl^1+; cited from earlier work

In the case of `CC(C)(S)[C@@H](N)C(=O)O` [Penicillamine, 3-mercapto-D-valine], the “binding stability constant (log K)” value [1] is listed as 15.33, the “binding stability constant (log K)” value ([1]; listed as penicillamine) is listed as “very strongly” and the solubility ([2]; in acetone) is listed as “insoluble”. The solubility ([2]; in alcohol) was “slightly soluble”, the solubility ([2]; in benzene) was “insoluble” and the solubility ([2]; in carbon tetrachloride) was “insoluble”. The solubility ([2]; in ether) was “insoluble”, the solubility ([2]; in water) was “freely soluble” and the “binding stability constant (log K)” value [3] was 3.58.
